This note sets out measurements from US9580416B2, “Inhibitors of Bruton's tyrosine kinase” (PHARMACYCLICS LLC, priority 2014, dated 2017).

Common to all, as to type: biochemical
One experiment concerns the target EGFR (Homo sapiens, UniProt P00533). Kind of experiment: Inhibition of a panel of kinases, in vitro HotSpot kinase assay: EGFR. The method, then:
(§1) The degree of inhibition of a panel of kinases is determined using the in vitro HotSpot kinase assay (purified enzymes, ^33P-ATP, an appropriate substrate and 1 uM ATP).

The target in a further experiment is Btk (Homo sapiens, UniProt Q06187). The experiment is described as follows: Btk kinase activity, TR-FRET assay. The method in brief:
(§2)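 Enzyme (Btk 0.5 nM; Lck 6 nM) reacted 1 h with inhibitor, ATP at Km and biotin-peptide substrate in pH 7.4 buffer, 10% DMSO. Phosphopeptide detected by Eu-p-Tyr100 antibody plus streptavidin-APC (665/615 nm). IC50 calculated from fitted Ki(app) via ATP/Km correction plus half total enzyme.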
A general note: Time-resolved FRET reads energy transfer from a long-lived donor to a nearby acceptor.

A further experiment concerns the target Lck (Homo sapiens, UniProt P06239). Kind of experiment: Lck kinase activity, TR-FRET assay. In short, it runs like this: as §2
The next experiment addresses T1, JAK3 (Homo sapiens, UniProt P52333).
T1 sequence (P52333 1-1124): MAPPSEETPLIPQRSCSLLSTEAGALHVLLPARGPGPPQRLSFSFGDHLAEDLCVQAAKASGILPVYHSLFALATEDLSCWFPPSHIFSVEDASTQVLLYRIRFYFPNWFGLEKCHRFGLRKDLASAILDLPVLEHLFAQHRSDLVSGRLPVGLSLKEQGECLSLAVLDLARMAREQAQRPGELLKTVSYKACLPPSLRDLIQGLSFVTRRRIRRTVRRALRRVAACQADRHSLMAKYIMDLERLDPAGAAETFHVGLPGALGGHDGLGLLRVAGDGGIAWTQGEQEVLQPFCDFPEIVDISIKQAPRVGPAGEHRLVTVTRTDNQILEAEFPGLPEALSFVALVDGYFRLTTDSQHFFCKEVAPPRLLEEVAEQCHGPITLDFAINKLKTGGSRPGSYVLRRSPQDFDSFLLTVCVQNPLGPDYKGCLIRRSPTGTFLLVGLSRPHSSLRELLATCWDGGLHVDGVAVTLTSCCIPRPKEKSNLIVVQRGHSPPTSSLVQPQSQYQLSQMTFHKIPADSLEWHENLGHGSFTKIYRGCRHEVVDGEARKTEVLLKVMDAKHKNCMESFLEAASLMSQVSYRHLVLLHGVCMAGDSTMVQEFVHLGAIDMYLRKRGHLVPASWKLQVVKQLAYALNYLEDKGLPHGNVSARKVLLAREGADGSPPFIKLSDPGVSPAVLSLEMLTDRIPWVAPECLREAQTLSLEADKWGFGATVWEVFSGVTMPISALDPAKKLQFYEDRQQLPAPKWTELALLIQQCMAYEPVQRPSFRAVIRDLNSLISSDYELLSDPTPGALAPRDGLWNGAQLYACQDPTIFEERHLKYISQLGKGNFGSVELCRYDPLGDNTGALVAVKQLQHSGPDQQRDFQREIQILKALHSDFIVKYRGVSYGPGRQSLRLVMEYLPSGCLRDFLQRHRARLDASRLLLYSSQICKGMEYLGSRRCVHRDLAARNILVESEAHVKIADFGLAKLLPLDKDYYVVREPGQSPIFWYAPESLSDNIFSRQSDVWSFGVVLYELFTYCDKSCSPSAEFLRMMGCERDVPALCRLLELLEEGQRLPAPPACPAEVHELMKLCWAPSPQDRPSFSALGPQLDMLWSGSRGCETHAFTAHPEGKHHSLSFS
The experiment is described as follows: Inhibition of a panel of kinases, in vitro HotSpot kinase assay: JAK3. The method, then: as §1

Read-outs that look alike come from different tables or passages of the source.

Sequence of Btk (Q06187 whole entry): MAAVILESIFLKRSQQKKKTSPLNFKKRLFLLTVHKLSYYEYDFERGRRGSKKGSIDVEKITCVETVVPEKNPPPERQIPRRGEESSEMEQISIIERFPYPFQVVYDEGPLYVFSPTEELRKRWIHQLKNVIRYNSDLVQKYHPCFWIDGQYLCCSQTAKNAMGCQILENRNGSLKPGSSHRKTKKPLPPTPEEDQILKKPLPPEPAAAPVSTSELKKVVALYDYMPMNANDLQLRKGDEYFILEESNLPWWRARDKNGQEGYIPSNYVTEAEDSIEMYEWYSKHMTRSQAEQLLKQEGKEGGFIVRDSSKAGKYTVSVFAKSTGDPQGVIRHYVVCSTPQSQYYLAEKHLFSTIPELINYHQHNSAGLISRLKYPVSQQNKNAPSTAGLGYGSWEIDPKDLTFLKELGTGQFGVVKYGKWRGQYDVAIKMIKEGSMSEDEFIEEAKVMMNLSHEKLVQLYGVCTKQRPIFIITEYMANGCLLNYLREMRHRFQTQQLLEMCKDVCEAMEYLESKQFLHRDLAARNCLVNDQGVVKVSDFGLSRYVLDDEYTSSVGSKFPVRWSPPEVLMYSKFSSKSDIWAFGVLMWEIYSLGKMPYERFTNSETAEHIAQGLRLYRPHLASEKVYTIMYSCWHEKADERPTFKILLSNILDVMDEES
Sequence of EGFR (P00533 25-1210): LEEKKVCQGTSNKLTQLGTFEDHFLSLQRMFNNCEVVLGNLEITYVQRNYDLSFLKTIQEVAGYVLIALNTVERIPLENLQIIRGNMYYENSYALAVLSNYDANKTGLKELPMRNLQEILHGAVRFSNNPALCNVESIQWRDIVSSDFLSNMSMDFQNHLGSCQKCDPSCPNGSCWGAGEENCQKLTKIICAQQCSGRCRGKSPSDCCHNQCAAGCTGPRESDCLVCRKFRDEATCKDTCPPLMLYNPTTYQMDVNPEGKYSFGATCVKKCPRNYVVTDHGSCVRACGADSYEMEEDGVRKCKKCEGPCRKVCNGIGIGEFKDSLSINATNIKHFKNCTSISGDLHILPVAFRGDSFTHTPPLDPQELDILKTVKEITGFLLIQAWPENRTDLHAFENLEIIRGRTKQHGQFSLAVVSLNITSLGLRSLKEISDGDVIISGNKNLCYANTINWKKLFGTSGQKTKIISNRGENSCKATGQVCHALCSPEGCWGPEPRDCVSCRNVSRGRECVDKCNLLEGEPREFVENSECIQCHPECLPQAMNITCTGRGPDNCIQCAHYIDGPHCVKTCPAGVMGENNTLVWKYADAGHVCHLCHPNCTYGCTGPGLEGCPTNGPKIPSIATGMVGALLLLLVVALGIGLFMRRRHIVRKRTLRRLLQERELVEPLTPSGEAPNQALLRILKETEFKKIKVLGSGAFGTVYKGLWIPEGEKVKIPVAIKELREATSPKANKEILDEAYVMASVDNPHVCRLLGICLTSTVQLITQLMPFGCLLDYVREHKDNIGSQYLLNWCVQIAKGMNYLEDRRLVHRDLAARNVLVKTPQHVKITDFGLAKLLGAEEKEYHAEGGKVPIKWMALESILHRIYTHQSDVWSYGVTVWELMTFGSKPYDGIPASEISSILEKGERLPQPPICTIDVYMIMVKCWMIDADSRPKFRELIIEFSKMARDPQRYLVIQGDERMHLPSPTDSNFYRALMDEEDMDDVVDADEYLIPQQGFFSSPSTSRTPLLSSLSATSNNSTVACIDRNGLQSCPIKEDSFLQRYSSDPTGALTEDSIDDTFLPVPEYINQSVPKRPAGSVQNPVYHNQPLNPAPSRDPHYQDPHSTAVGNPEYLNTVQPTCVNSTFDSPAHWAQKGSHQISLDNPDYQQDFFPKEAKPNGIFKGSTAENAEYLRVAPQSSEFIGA
Sequence of Lck (P06239 whole entry, species assumed): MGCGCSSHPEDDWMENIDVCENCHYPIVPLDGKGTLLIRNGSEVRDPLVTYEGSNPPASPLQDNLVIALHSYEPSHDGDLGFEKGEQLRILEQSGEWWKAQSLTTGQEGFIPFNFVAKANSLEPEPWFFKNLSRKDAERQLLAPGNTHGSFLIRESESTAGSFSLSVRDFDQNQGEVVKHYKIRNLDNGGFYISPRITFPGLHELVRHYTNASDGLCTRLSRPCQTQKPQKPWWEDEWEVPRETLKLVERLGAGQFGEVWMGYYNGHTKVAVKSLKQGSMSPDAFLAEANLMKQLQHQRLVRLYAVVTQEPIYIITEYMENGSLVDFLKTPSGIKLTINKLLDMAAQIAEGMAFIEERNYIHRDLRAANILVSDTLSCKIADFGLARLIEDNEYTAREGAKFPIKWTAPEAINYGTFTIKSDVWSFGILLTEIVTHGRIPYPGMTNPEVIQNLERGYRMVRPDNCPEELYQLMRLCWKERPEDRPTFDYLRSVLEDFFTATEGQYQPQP

As for `C=CC(=O)N1CC[C@@H](Nc2n[nH]c3nccc(Oc4ccc(Cl)cc4)c23)C1` [compound 1], the IC50 at EGFR is 100 to 1000 nM; on Btk (read-out: Btk (IC50)), less than 100 nM; on Lck (read-out: LCK (IC50)), 1000 to 10000 nM; against JAK3 it was 1000 to 10000 nM.

For `C=CC(=O)N1CC[C@@H](Nc2n[nH]c3nccc(Oc4ccc(Oc5ccccc5)cc4)c23)C1` [compound 4, 1-[(3R)-3-{[4-(4-phenoxyphenoxy)-1H-pyrazolo[3,4-b]pyridin-3-yl]amino}pyrrolidin-1-yl]prop-2-en-1-one], the IC50 at EGFR was less than 100 nM; on Btk (read-out: Btk (IC50)), less than 100 nM; at Lck (read-out: LCK (IC50)), less than 100 nM; against JAK3 it was 100 to 1000 nM.

As to `CN(C)C/C=C/C(=O)N1CC[C@@H](Nc2n[nH]c3nccc(Oc4ccc(Oc5ccccc5)cc4)c23)C1` [compound 5, (2E)-4-(dimethylamino)-1-[(3R)-3-{[4-(4-phenoxyphenoxy)-1H-pyrazolo[3,4-b]pyridin-3-yl]amino}pyrrolidin-1-yl]but-2-en-1-one], the IC50 is less than 100 nM on EGFR, less than 100 nM on Btk (read-out: Btk (IC50)), less than 100 nM on Lck (read-out: LCK (IC50)) and more than 10000 nM against JAK3.

`C=CC(=O)N1CCC[C@@H](Nc2n[nH]c3nccc(Oc4ccc(Oc5ccccc5)cc4)c23)C1` [compound 6, 1-[(3R)-3-{[4-(4-phenoxyphenoxy)-1H-pyrazolo[3,4-b]pyridin-3-yl]amino}piperidin-1-yl]prop-2-en-1-one]: the IC50 was less than 100 nM on EGFR, less than 100 nM on Btk (read-out: Btk (IC50)), less than 100 nM at Lck (read-out: LCK (IC50)) and 100 to 1000 nM against JAK3.

Regarding `CN(C/C=C/C(=O)N1CCC[C@@H](Nc2n[nH]c3nccc(Oc4ccc(Oc5ccccc5)cc4)c23)C1)C1CC1` [compound 8, (2E)-4-[cyclopropyl(methyl)amino]-1-[(3R)-3-{[4-(4-phenoxyphenoxy)-1H-pyrazolo[3,4-b]pyridin-3-yl]amino}piperidin-1-yl]but-2-en-1-one], the IC50 is 100 to 1000 nM against EGFR, less than 100 nM on Btk (read-out: Btk (IC50)), less than 100 nM on Lck (read-out: LCK (IC50)) and more than 10000 nM against JAK3.

For the compound `COCCN(C)C/C=C/C(=O)N1CC[C@@H](Nc2n[nH]c3nccc(Oc4ccc(Oc5ccccc5)cc4)c23)C1` [compound 9, (2E)-4-[(2-methoxyethyl)(methyl)amino]-1-[(3R)-3-{[4-(4-phenoxyphenoxy)-1H-pyrazolo[3,4-b]pyridin-3-yl]amino}pyrrolidin-1-yl]but-2-en-1-one], the IC50 is less than 100 nM on EGFR, less than 100 nM at Btk (read-out: Btk (IC50)), less than 100 nM at Lck (read-out: LCK (IC50)) and more than 10000 nM against JAK3.

`CN(C)C/C=C/C(=O)N(C)[C@H]1CC[C@@H](Nc2n[nH]c3nccc(Oc4cccc(Oc5ccccc5)c4)c23)CC1` [compound 21, (2E)-4-(dimethylamino)-N-methyl-N-[(1s,4s)-4-{[4-(3-phenoxyphenoxy)-1H-pyrazolo[3,4-b]pyridin-3-yl]amino}cyclohexyl]but-2-enamide]: the IC50 against EGFR was 100 to 1000 nM; on Btk (read-out: Btk (IC50)) it was less than 100 nM; at Lck (read-out: LCK (IC50)) it was 100 to 1000 nM; against JAK3, 100 to 1000 nM.

Consider `Cc1ccnc(NC(=O)c2ccc(Oc3ccnc4[nH]nc(N[C@@H]5CCCN(C(=O)Oc6ccccc6)C5)c34)cc2)c1` [compound 93, phenyl (3R)-3-[(4-{4-[(4-methylpyridin-2-yl)carbamoyl]phenoxy}-1H-pyrazolo[3,4-b]pyridin-3-yl)amino]piperidine-1-carboxylate], for which the IC50 at EGFR was more than 10000 nM; against Btk it was 100 to 1000 nM; against Lck, 1000 to 10000 nM; against JAK3, more than 10000 nM.

Take `Cc1ccnc(NC(=O)c2ccc(Oc3ccnc4[nH]nc(N[C@@H]5CCCN(C(=O)CCCN(C)C)C5)c34)cc2)c1` [compound 95]: the IC50 against EGFR was 1000 to 10000 nM; at Btk (read-out: Btk (IC50)), less than 100 nM; on Lck (read-out: LCK (IC50)), less than 100 nM; at JAK3 it was more than 10000 nM.

On to `Cc1ccnc(NC(=O)c2ccc(Oc3ccnc4[nH]nc(N[C@@H]5CCCN(C(=O)C6CCNCC6)C5)c34)cc2)c1` [compound 96, N-(4-methylpyridin-2-yl)-4-[(3-{[(3R)-1-(piperidin-4-carbonyl)piperidin-3-yl]amino}-1H-pyrazolo[3,4-b]pyridin-4-yl)oxy]benzamide], for which the IC50 was 1000 to 10000 nM at EGFR, less than 100 nM at Btk (read-out: Btk (IC50)), 100 to 1000 nM on Lck (read-out: LCK (IC50)) and more than 10000 nM on JAK3.

Regarding `CNC(=O)C(=O)N1CCC[C@@H](Nc2n[nH]c3nccc(Oc4ccc(C(=O)Nc5cc(C)ccn5)cc4)c23)C1` [compound 97, 4-[(3-{[(3R)-1-[(methylcarbamoyl)carbonyl]piperidin-3-yl]amino}-1H-pyrazolo[3,4-b]pyridin-4-yl)oxy]-N-(4-methylpyridin-2-yl)benzamide], the IC50 was 1000 to 10000 nM on EGFR, less than 100 nM on Btk (read-out: Btk (IC50)), 100 to 1000 nM on Lck (read-out: LCK (IC50)) and more than 10000 nM at JAK3.

For `Cc1ccnc(NC(=O)c2ccc(Oc3ccnc4[nH]nc(N[C@@H]5CCCN(C(=O)C(=O)N(C)C)C5)c34)cc2)c1` [compound 98, 4-[(3-{[(3R)-1-[(dimethylcarbamoyl)carbonyl]piperidin-3-yl]amino}-1H-pyrazolo[3,4-b]pyridin-4-yl)oxy]-N-(4-methylpyridin-2-yl)benzamide], the IC50 against EGFR is more than 10000 nM; on Btk (read-out: Btk (IC50)), less than 100 nM; at Lck (read-out: LCK (IC50)) it was 100 to 1000 nM; on JAK3, more than 10000 nM.

As for `COCC1(C(=O)N2CCC[C@@H](Nc3n[nH]c4nccc(Oc5ccc(C(=O)Nc6cc(C)ccn6)cc5)c34)C2)CCC1` [compound 99, 4-[(3-{[(3R)-1-[1-(methoxymethyl)cyclobutanecarbonyl]piperidin-3-yl]amino}-1H-pyrazolo[3,4-b]pyridin-4-yl)oxy]-N-(4-methylpyridin-2-yl)benzamide], the IC50 against EGFR was more than 10000 nM; at Btk (read-out: Btk (IC50)), less than 100 nM; on Lck (read-out: LCK (IC50)), 100 to 1000 nM; against JAK3 it was more than 10000 nM.

As to `Cc1ccnc(NC(=O)c2ccc(Oc3ccnc4[nH]nc(N[C@@H]5CCCN(C(=O)C6CC6)C5)c34)cc2)c1` [compound 100, 4-[(3-{[(3R)-1-cyclopropanecarbonylpiperidin-3-yl]amino}-1H-pyrazolo[3,4-b]pyridin-4-yl)oxy]-N-(4-methylpyridin-2-yl)benzamide], the 50% inhibitory concentration (IC50) at EGFR is 1000 to 10000 nM; at Btk (read-out: Btk (IC50)), less than 100 nM; at Lck (read-out: LCK (IC50)), 100 to 1000 nM; against JAK3 it was more than 10000 nM.

`Cc1ccnc(NC(=O)c2ccc(Oc3ccnc4[nH]nc(N[C@@H]5CCCN(C(=O)C6(C#N)CC6)C5)c34)cc2)c1` [compound 101, 4-[(3-{[(3R)-1-(1-cyanocyclopropanecarbonyl)piperidin-3-yl]amino}-1H-pyrazolo[3,4-b]pyridin-4-yl)oxy]-N-(4-methylpyridin-2-yl)benzamide]: the IC50 against EGFR was more than 10000 nM; on Btk (read-out: Btk (IC50)) it was less than 100 nM; at Lck (read-out: LCK (IC50)) it was 100 to 1000 nM; against JAK3, more than 10000 nM.

On to `Cc1ccnc(NC(=O)c2ccc(Oc3ccnc4[nH]nc(N[C@@H]5CCCN(C(=O)C(C)(C)C#N)C5)c34)cc2)c1` [compound 102, 4-[(3-{[(3R)-1-(2-cyano-2,2-dimethylacetyl)piperidin-3-yl]amino}-1H-pyrazolo[3,4-b]pyridin-4-yl)oxy]-N-(4-methylpyridin-2-yl)benzamide], for which the IC50 against EGFR is more than 10000 nM; on Btk (read-out: Btk (IC50)), less than 100 nM; on Lck (read-out: LCK (IC50)), 100 to 1000 nM; on JAK3, more than 10000 nM.

Regarding `Cc1ccnc(NC(=O)c2ccc(Oc3ccnc4[nH]nc(N[C@@H]5CCCN(C(=O)C6(C)CCN(C(=O)OC(C)(C)C)CC6)C5)c34)cc2)c1` [compound 103, tert-butyl 4-methyl-4-[(3R)-3-[(4-{4-[(4-methylpyridin-2-yl)carbamoyl]phenoxy}-1H-pyrazolo[3,4-b]pyridin-3-yl)amino]piperidine-1-carbonyl]piperidine-1-carboxylate], the IC50 on EGFR is more than 10000 nM; on Btk (read-out: Btk (IC50)), less than 100 nM; at Lck (read-out: LCK (IC50)), 1000 to 10000 nM; against JAK3, more than 10000 nM.

The IC50 is the concentration that gives 50% inhibition.
